± gives the expanded uncertainty stated by the source.
Conditions: for speed of sound / mass density: 101.33 kPa, Liquid; for speed of sound: Pulse-echo method; for mass density: Vibrating tube method; for surface tension liquid-gas: Drop volume

speed of sound (288.15 K)	mass density (288.15 K)	speed of sound (293.15 K)	mass density (293.15 K)	surface tension liquid-gas (298.15 K)	speed of sound (298.15 K)	mass density (298.15 K)	speed of sound (303.15 K)	mass density (303.15 K)	speed of sound (308.15 K)	mass density (308.15 K)	SMILES
1240.7 ± 1.5 m/s	1076.64 ± 0.3 kg/m3	1218.1 ± 1.5 m/s	1070.01 ± 0.29 kg/m3	28.08 ± 0.21 mN/m	1195.1 ± 1.5 m/s	1063.39 ± 0.28 kg/m3	1173.2 ± 1.5 m/s	1056.78 ± 0.28 kg/m3	1151.5 ± 1.5 m/s	1050.15 ± 0.27 kg/m3	COC(=O)OC [dimethyl carbonate]
1213.6 ± 1.5 m/s	706.58 ± 0.25 kg/m3	1192.9 ± 1.5 m/s	702.57 ± 0.25 kg/m3	20.99 ± 0.17 mN/m	1171.9 ± 1.5 m/s	698.55 ± 0.25 kg/m3	1150.9 ± 1.5 m/s	694.48 ± 0.25 kg/m3	1130.3 ± 1.5 m/s	690.42 ± 0.25 kg/m3	CCCCCCCC [octane]

SMILES	speed of sound (288.15 K)	mass density (288.15 K)	speed of sound (293.15 K)	mass density (293.15 K)	surface tension liquid-gas (298.15 K)	speed of sound (298.15 K)	mass density (298.15 K)	speed of sound (303.15 K)	mass density (303.15 K)	speed of sound (308.15 K)	mass density (308.15 K)
Cc1ccc(C)cc1 [1,4-dimethylbenzene]	1350.7 ± 1.6 m/s	865.2 ± 0.24 kg/m3	1329.6 ± 1.6 m/s	860.9 ± 0.24 kg/m3	27.43 ± 0.2 mN/m	1308.4 ± 1.5 m/s	856.58 ± 0.24 kg/m3	1287.4 ± 1.5 m/s	852.21 ± 0.24 kg/m3	1266.4 ± 1.5 m/s	847.83 ± 0.24 kg/m3
